| Compound | melting point [°C] |
| --- | --- |
| CN(C)CCCc1cccc(OCCCNc2nc(N)nn2C)c1 | 64 to 65.5 |
| CCN(C)C1=NS(=O)(=O)c2cc(Cl)ccc2N1 | > 220 |
| CC(C)(C)C1CCC(OO)(OO)CC1 | 83 to 84 |
| CCOC(=O)C1CCN(C(N)=S)CC1 | 97 to 98 |
| CC(=O)NCCNC(=O)c1ccc(Br)s1 | 244 to 245 |
| CCOC(=O)c1sc2ccc(Cl)cc2c1CBr | 148 to 150 |
| O=[N+]([O-])c1cc(Cl)ccc1NCCO | 98 to 100 |
| CC(=O)N1CCCC(=O)c2ccc(Cl)cc2CCC1=O | 154 to 156 |
| Cc1cccc(C)c1NC(=O)CCCSc1cc(C(C)(C)C)c(O)c(C(C)(C)C)c1 | 140 |
| CCCCCCN1C(=O)NC(=O)C1O (configuration not stated) | 96 to 97 |
| C/C(NCCCc1ccccc1)=C(\C#N)C(N)=S | 125 to 126 |
| CCOC(=O)C(C)(NC(=O)Cc1ccc2ccccc2c1)C(=O)OCC | 148 to 150 |
| COC(=O)Cc1nsc(NC(=O)OC)n1 | 167 to 169 |
| Cc1c(C)c2c(c(C)c1N)CC(C)(CN1CCN(C)CC1)O2 (configuration not stated) | 76 to 77 |
| COc1ccnc2c1c(C(C)=O)cn2C | 79 to 81 |
| COC(=O)c1cc(Cl)c(NC(C)=O)c([N+](=O)[O-])c1O | 166 to 169 |
| O=C1Nc2cccnc2C(=O)N2CCCC12 (configuration not stated) | 249 to 250 |
| CC(=O)OCc1cc(C(C)=O)ccc1OC(C)=O | 47 to 48 |
| O=c1cc(CO)oc(CO)c1O | 160 to 161 |
| COC(=O)[C@@H]1C(=O)CC[C@H]1C(=O)OC (relative stereo) | 49 to 50 |
| CCOC(=O)C1(CBr)C=CC=CC1S(=O)(=O)NC(C)(C)C (configuration not stated) | 74 to 75 |
| Cc1ccc2nc(N3CC[C@@H](O)C3)ccc2c1NC(=O)CC1CCCCC1 | 248 to 249 |
| CC(NC(=S)Nc1ccc(NCCN)nc1)C(C)(C)C (configuration not stated) | 138 to 140 |
| O=C(O)CCc1nnc2c(=O)[nH]c3cc(C(F)(F)F)ccc3n12 | 333 |
| CCOC(=O)C=CC(C)=CC=C(C)C=CC1=C(C)CCCC1(C)C | 65 to 66 |
| Cc1nnc(OC(=O)NC(C)(C)C)n1-c1ccc(Cl)cn1 | 132 to 134 |

| Compound | melting point [°C] |
| --- | --- |
| CCOC(=O)CC(=O)NC(Cc1ccccc1)C(C)=O (configuration not stated) | 68 to 69 |
| Ic1ccc(N2CCCC2)cc1 | 99.7 to 99.8 |
| CCOC(=O)C(CC)C(=O)N1NCCCC1C(=O)OC(C)(C)C (configuration not stated) | 78 to 79 |
| CC(C)CC(NC(=O)C(NCc1ccccc1)C(C)C)C(=O)NC(CCCCNC(=O)OCc1ccccc1)C(=O)Oc1cccc2ccccc12 (configuration not stated) | 153 to 156 |
| CC=NOCc1nc2c(N)nc(C)c(C)c2n1CCCCNC(=O)c1ccccc1 | 192 to 194 |
| CN(C)CCCOc1ccc(/C=C/C(=O)O)cc1 | 191 to 193 |
| COc1cc2c(cc1Nc1ncc(C(F)(F)F)c(N[C@H]3[C@@H](C(N)=O)[C@@H]4C=C[C@H]3C4)n1)CCN(CC(=O)N(C)C)CC2 | 133 to 135 |
| O=c1[nH]c2ccc([N+](=O)[O-])cc2c(=O)n1CCCN1CC=C(c2ccc(Cl)cc2)CC1 | 205 to 207 |
| COC(=O)CCn1c(C)c(Cn2ccnc2)c2c(CCC(=O)O)cccc21 | 136 to 138 |
| O=C(OCc1ccccc1)N1CCC2(CC1)CC(=O)N(OC[N+](=O)[O-])C2=O | 137 to 139 |
| Cc1nn(C)cc1C(=O)NC1=C(c2ccc(Cl)cc2)CCC1 | 103 to 105 |
| O=[N+]([O-])c1cc(Cl)ccc1CBr | 42 to 43 |
| Cc1nn(CC(=O)O)cc1C(=O)Nc1ccc(OCC(C)(C)C)c(C#N)c1 | 234 to 245 |
| COc1ccc(S(=O)(=O)C2(C(=O)NO)CCN(CC=C(C)C)CC2)cc1 | 142 to 145 |
| CC1(C)CC(NCCNCCNC2CC(C)(C)N(O)C(C)(C)C2)CC(C)(C)N1O | 118 to 124 |
| CC(C)NCC(O)COc1ccc2c(c1)OC(C)CC2 (configuration not stated) | 79 to 81 |
| COc1cc(OC)cc(N2CCN(C(=S)Nc3cc4c(nc3OC)CCC4)CC2)c1 | 169 to 170 |
| CC(C)(C)c1nc(C(=O)c2ncc[nH]2)nc(C(C)(C)C)c1O | 217 to 220 |
| CCOC(=O)c1cc2c(OCC3CO3)cc(C)cc2[nH]1 (configuration not stated) | 173 to 175 |
| Nc1scc2c1C(=O)c1ccc(Cl)cc1-2 | 201 to 202 |
| CCCCCCCCCCCCCCCCCCNC(=O)NCCCS(C)=O (configuration not stated) | 105 |
| CC(C)(C)OC(=O)N1CCN(C(=O)c2nc3c(N)nc(N)nc3nc2N)CC1 | 245 to 250 |
| COc1ccc(C(CCCCl)=NNC(N)=S)cc1 | 137 to 140 |
| O=C(O)CCC(=O)Nc1cc(C(=O)O)cc([N+](=O)[O-])c1 | 220 to 221 |
| CCOC(=O)COc1cc(O)c2c(=O)cc(-c3ccc(OC)c(OCC(=O)N4CCN(Cc5ccc(OC)c(OC)c5OC)CC4)c3)oc2c1 | 105 to 106 |
| CC(C)SC(=O)CCS(=O)(=O)C(C)C | 45 to 47 |

The next lines start with the values.

| melting point [°C] | Compound |
| --- | --- |
| 113 to 115 | COc1cc(-c2cn(C3CCCC3)c3ncnc(N)c23)ccc1NS(=O)(=O)c1ccccc1 |
| 126 to 127 | Cc1oc(-c2ccccc2)nc1COc1ccc(OCc2ncccc2CC(=O)O)cc1 |
| 289 to 291 | COc1ccc(C(=O)NCc2cccc3c2CN(C2CCC(=O)NC2=O)C3=O)cc1 (configuration not stated) |
| 217 to 220 | CSc1sc(-c2ccccn2)c2c1C(=O)CC(C)(C)C2 |
| 156 to 157 | Cc1ccc(-c2c(CNC(=O)OC(C)(C)C)[nH]c(=O)c3ccc(C#N)cc23)cc1 |
| 161 to 162 | CCS(=O)c1nc(-c2ccc(OC)cc2)c(-c2ccc(OC)cc2)[nH]1 (configuration not stated) |
| 117 to 118 | CN(c1ccc(Br)cc1)S(=O)(=O)c1cccc(C(=O)Nc2ccc(Cl)cc2F)c1 |
| 175 to 176 | Cc1cccc2c1nc(-c1ccc3ccccc3c1)n2Cc1c(F)cccc1F |
| 236 | CN1CCOc2ccc(S(=O)(=O)n3c(Cc4ccc(C(=O)O)cc4)cc4c(Cl)cccc43)cc21 |
| 232 to 233 | Cc1c(O)ccnc1CSc1nc2ccc(F)cc2[nH]1 |
| 57 to 59 | CCc1ccc(N)c(C(=O)c2ccccc2)c1 |
| 178 to 180 | Cc1cc(C2(C3CC3)CC(c3ccc(Cl)cc3)=NO2)ccc1NC(=O)c1cccc(I)c1C(=O)NC(C)C (configuration not stated) |
| > 255 | N#Cc1cccc(C2=Nc3cc(CO)c(C#Cc4ccccc4)cc3NC(=O)C2)c1 |
| 69 to 72 | FC1=Cc2ccccc2Nc2ccccc21 |
| 178 to 180 | N#CN1CCC2(CC1)CN(c1ccc(Cl)cc1)c1ccccc12 |
| 121 to 122 | CCCNc1c2ccccc2nc2c1c(C)nn2-c1ccccn1 |
| 155 to 156 | CC1(O)CC(=O)OC(C=Cc2ccc(OCc3ccccc3)cc2)C1 (configuration not stated) |
| 223 to 225 | NCc1cccc2ccc(C(=O)O)cc12 |
| 140 to 142 | CCCCCNC(=O)CC(c1ccc(OC)c(OC)c1)N1C(=O)c2ccccc2C1=O (configuration not stated) |
| 125 to 126 | CCOC(=O)[C@H](Cc1ccc(-c2c(OC)cc(COS(C)(=O)=O)cc2OC)cc1)NC(=O)c1c(F)cccc1F |
| 171 to 182 | Cc1c(NC(=O)NCC(C)O)c(C)c2c(c1-c1ccccc1)OCC2c1ccc(C(C)C)cc1 (configuration not stated) |
| 131 to 132 | CC(=O)c1cccc2ccc(CC(=O)O)cc12 |
| > 300 | CN1CCN(NC(=O)Nc2cccc3c2C(=O)c2c-3n[nH]c2-c2ccc(N(C)C)cc2)CC1 |
| 168 to 171 | CCCCc1ncc(/C=C(\Cc2ccc(OC)cc2)c2nnn[nH]2)n1Cc1ccccc1Cl |
| 239 to 242 | O=C1O[C@@H](Cn2ccnn2)CN1c1ccc(-c2ccc(C3=NO[C@H](Cn4ccnc4)C3)nc2)c(F)c1 |

| melting point [°C] | Compound |
| --- | --- |
| 217 to 220 | CC(O)(C(=O)Nc1ccc(S(=O)(=O)N(c2ccccc2)c2ccccc2)cc1)C(F)(F)F (configuration not stated) |
| 32 to 34 | CCCCCCCCCCOc1ccc(OCc2ccccc2)c(C(=O)OC)c1 |
| 204 to 205 | CCc1cc(OCc2ccc(-c3ccccc3C(=O)O)cc2)c2ccccc2n1 |
| 152 to 153 | COCn1c(=O)n(-c2ccc3c(c2)OCO3)c2ncccc21 |
| 155 to 156 | S=c1nc(-c2cccnc2Cl)[nH]n1Cc1ccccc1 |
| 92 to 93 | N#Cc1ccc2c(c1)C(=O)CC1(CCCCC1)O2 |
| 227 | Cc1ccc(-c2cccc(C(=O)O)n2)cc1C(=O)NCC12CC3CC(CC(C3)C1)C2 |
| 169 to 171 | CC(=O)OC1CSC(Oc2cccc(-c3ccncc3Cl)c2)C(OC(C)=O)C1OC(C)=O (configuration not stated) |
| 148 to 150 | CCCS(=O)(=O)c1cc(C(=O)CCC(=O)c2cc(OC)c(OC)c(OC)c2)cc(OC)c1OCc1ccccc1 |
| 209 | N#Cc1c(N2CCN(C(=O)c3ccco3)CC2)c2cc(F)ccc2n(Cc2ccccc2)c1=O |
| 104 | Cc1ncc(Cn2c(NC3CCN(CCNC(=O)c4cc5ccccc5n4C)CC3)nc3ccccc32)o1 |
| 200 to 201 | CCOC(=O)c1cnc2c(OCc3ccccc3)c(F)c(F)cc2c1O |
| 287 to 289 | Cc1c(-c2ccccc2)oc2c(C(=O)O)cc(Br)cc2c1=O |
| 182 | COc1cccc2c(=O)c3c(O)cc(OCC4CO4)cc3oc12 (configuration not stated) |
| 154 to 155 | Cc1ccccc1-c1c(NC(=O)OC(C)(C)C)c(=O)oc2cc3c(cc12)CCC3 |
| 104 to 106 | CC(=O)c1c(O)cccc1OCC(O)COc1cc(C)ccc1C (configuration not stated) |
| 236 to 237 | CC1(C)OC(=O)Nc2ccc(-c3cccc(C#N)c3)cc21 |
| > 360 | Cc1ccc2nc3[nH]c(=O)[nH]c3cc2c1Cl |
| 273 to 275 | Cc1cc(C(=O)O)nn1CC(=O)Nc1ccccc1 |
| 195 to 197 | Nc1ncccc1-c1nc2cc(Br)cnc2n1-c1ccc(CNC(=O)c2ccccc2)cc1 |
| 264 | CCc1cccc(C)c1CNc1cc(C(=O)O)cn2nc(C)nc12 |
| 157 to 158 | O=C(O)C(=O)c1c(F)cc(OCCOc2ccc3ccccc3c2)cc1F |
| 92 to 95 | CCCN(C1=C(O)CC(C2CCCC2)(C2CCCC2)OC1=O)c1cccc(NS(=O)(=O)c2cccs2)c1 |
| 116 to 117 | COc1c(C)c(CO)c(OC)c2ccccc12 |
| 105 | C=CCOc1cc2c(c(Cl)c1Cl)C(=O)C(C)(c1ccccc1)C2 (configuration not stated) |

From a melting point compilation (Tetko et al.; mined from patent text by program, amines drawn as free bases though some values may be those of a salt)
